Data reported in paper PMC10353187, “Discovery of a new potent oxindole multi-kinase inhibitor among a series of designed 3-alkenyl-oxindoles with ancillary carbonic anhydrase inhibitory activity as antiproliferative agents” (BMC Chemistry, 2023).
Read-outs that look alike come from different tables or passages of the source.

Assays:
hCA XII [1] = target: T1, hCA XII (Homo sapiens, UniProt O43570); parameters: made in house; details: reported CAIs, Fig. 1; cited from earlier work
hCA IX [2] = target: T2, hCA IX (Homo sapiens, UniProt Q16790); parameters: made in house; details: reported CAIs, Fig. 1; cited from earlier work
PDGFR α = details: cited from earlier work
VEGFRII = details: cited from earlier work
PDGF = details: Fig. 2, reported multi-kinase inhibitors; cited from earlier work
FGFRII = details: cited from earlier work
VEGFRI = details: cited from earlier work
VEGFRIII = details: cited from earlier work
FGFRI = details: cited from earlier work
VEGF = details: Fig. 2, reported multi-kinase inhibitors; cited from earlier work
[3] = Fig. 2; read-out: cytotoxicity average IC50; cited from earlier work
PDGFR β = details: Fig. 2, reported multi-kinase inhibitors; read-out: PDGFB IC50; cited from earlier work
HOP-92 = experiment: NCI-60 single-dose antiproliferative assay (SRB); type: cell-based; details: Homo sapiens; 10 μM single dose; HOP-92, Non-small cell lung cancer; read-out: Cell Growth inhibition Percent
Experimental: (§1) From the newly synthesized compounds, eleven compounds (4c, 4d, 5, 9a, 9b, 11a, 11b, 13b, 13c, 15b, and 15c) were selected by the National Cancer Institute (NCI) Developmental Therapeutics Program (DTP), Bethesda, Maryland, USA for the in vitro anti-proliferative activity evaluation. The selected compounds were examined at 10 μM dose against the NCI 60-cell line panel. This panel consists of nine cell line groups of leukemia, non-small cell lung carcinoma (NSCLC), melanoma, colon, CNS, ovarian, renal, prostate, and breast cancers. The results are reported as mean-graph of the percent growth relative to control and presented as percentage growth inhibition (GI%), furthermore, mean GI% of each compound over all panel cell lines was calculated (Table 1; Additional file 1; S3: In vitro biological activity).
(§2) From the newly synthesized compounds, eleven compounds were selected by the National Cancer Institute (NCI) Developmental Therapeutics Program (DTP), Bethesda, Maryland, USA for the in vitro anti-proliferative activity evaluation (For further details see supplementary materials).
(§3) NCI In-vitro Cancer Screening is a two-phase procedure that starts with the assessment of all compounds against the sixty NCI cell line panel depicting leukemia, NSCLC, CNS cancer, melanoma, prostate cancer, breast cancer, renal cancer, colon cancer and ovarian cancer cell lines at a single point of 10μM. The output from the single-dose screen is reportable as a mean graph.
(§4) The human tumor cell lines of the cancer screening panel were grown in RPMI 1640 medium containing 5% fetal bovine serum and 2 mM L-glutamine. For a typical screening experiment, cells were inoculated into 96 well microtiter plates in […] at plating densities ranging from 5000 to 40,000 cells/well depending on the doubling time of individual cell lines. After cell inoculation, the microtiter plates were incubated at 37 °C, 5% CO2, 95% air and 100% relative humidity for 24 h prior to addition of experimental drugs. After 24 h, two plates of each cell line were fixed in situ with trichloroacetic acid (TCA), to represent a measurement of the cell population for each cell line at the time of drug addition (Tz). Experimental drugs were solubilized in dimethyl sulfoxide at 400-fold the desired final maximum test concentration and stored frozen prior to use. At the time of drug addition, an aliquot of frozen concentrate was thawed and diluted to twice the desired final maximum test concentration with complete medium containing 50 µg/ml gentamicin. Aliquot of 100 µl of the drug dilution was added to the appropriate microtiter wells already containing 100 µl of medium, resulting in the required final drug concentration (10 µM). Triplicate wells were prepared for each individual dose. Following drug addition, the plates were incubated for an additional 48 h at 37 °C, 5% CO2, 95% air, and 100% relative humidity. For adherent cells, the assay was terminated by the addition of cold TCA. Cells were fixed in situ by the gentle addition of 50 µl of cold 50% (w/v) TCA (final concentration, 10% TCA) and incubated for 60 min at 4 °C. The supernatant was discarded, and the plates were washed five times with tap water and air dried. Sulforhodamine B (SRB) solution (100 µl) at 0.4% (w/v) in 1% acetic acid was added to each well, and plates were incubated for 10 min at room temperature. After staining, unbound dye was removed by washing five times with 1% acetic acid and the plates were air dried. Bound stain was subsequently solubilized with 10 mM trizma base, and the absorbance was read on an automated plate reader at a wavelength of 515 nm. For suspension cells, the methodology was the same except that the assay was terminated by fixing settled cells at the bottom of the wells by gently adding 50 µl of 80% TCA (final concentration, 16% TCA). […]

HOP-62 = experiment: NCI-60 single-dose antiproliferative assay (SRB); type: cell-based; details: Homo sapiens; 10 μM single dose; HOP-62, Non-small cell lung cancer; read-out: Cell Growth inhibition Percent
Experimental: as §1, §2, §3, §4

OVCAR-8 = experiment: NCI-60 single-dose antiproliferative assay (SRB); type: cell-based; details: Homo sapiens; 10 μM single dose; OVCAR-8, Ovarian Cancer; read-out: Cell Growth inhibition Percent
Experimental: as §1, §2, §3, §4

NCI-H522 = experiment: NCI-60 single-dose antiproliferative assay (SRB); type: cell-based; details: Homo sapiens; 10 μM single dose; NCI-H522, Non-small cell lung cancer; read-out: Cell Growth inhibition Percent
Experimental: as §1, §2, §3, §4

SNB-75 = experiment: NCI-60 single-dose antiproliferative assay (SRB); type: cell-based; details: Homo sapiens; 10 μM single dose; SNB-75, CNS cancer; read-out: Cell Growth inhibition Percent
Experimental: as §1, §2, §3, §4

CAKI-1 = experiment: NCI-60 single-dose antiproliferative assay (SRB); type: cell-based; details: Homo sapiens; 10 μM single dose; CAKI-1, Renal cancer; read-out: Cell Growth inhibition Percent
Experimental: as §1, §2, §3, §4

ACHN = experiment: NCI-60 single-dose antiproliferative assay (SRB); type: cell-based; details: Homo sapiens, 10 μM single dose, Renal cancer, read-out: Cell Growth inhibition Percent
Experimental: as §1, §2, §3, §4

MCF7 = experiment: NCI-60 single-dose antiproliferative assay (SRB); type: cell-based; details: Homo sapiens; 10 μM single dose; MCF7, Breast cancer; read-out: Cell Growth inhibition Percent
Experimental: as §1, §2, §3, §4

hCA IX [4] = target: T2, hCA IX; experiment: Stopped flow CO2 hydrase assay
hCA XII [5] = target: T1, hCA XII; experiment: Stopped flow CO2 hydrase assay
hCA I = hCA I (Homo sapiens, UniProt P00915); experiment: Stopped flow CO2 hydrase assay
Chain of hCA I (P00915 whole entry): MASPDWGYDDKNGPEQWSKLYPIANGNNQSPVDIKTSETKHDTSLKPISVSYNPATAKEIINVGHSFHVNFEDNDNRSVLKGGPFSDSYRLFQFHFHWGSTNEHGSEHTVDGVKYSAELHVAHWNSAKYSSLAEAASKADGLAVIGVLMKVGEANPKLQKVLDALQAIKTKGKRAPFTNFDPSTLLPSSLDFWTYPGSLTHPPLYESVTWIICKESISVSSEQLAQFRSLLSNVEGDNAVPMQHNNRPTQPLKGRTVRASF

UO-31 = experiment: NCI-60 single-dose antiproliferative assay (SRB); type: cell-based, human; details: Homo sapiens, UO-31, 10 μM single dose; UO-31, Renal cancer; read-out: Cell Growth inhibition Percent
Experimental: as §1, §2, §3, §4

hCA II = hCA II (Homo sapiens, UniProt P00918); experiment: Stopped flow CO2 hydrase assay
NCI-H23 = experiment: NCI-60 single-dose antiproliferative assay (SRB); type: cell-based; details: Homo sapiens; 10 μM single dose; NCI-H23, Non-small cell lung cancer; read-out: Cell Growth inhibition Percent
Experimental: as §1, §2, §3, §4

SN12C = experiment: NCI-60 single-dose antiproliferative assay (SRB); type: cell-based; details: Homo sapiens, 10 μM single dose, Renal cancer, read-out: Cell Growth inhibition Percent
Experimental: as §1, §2, §3, §4

786-0 = experiment: NCI-60 single-dose antiproliferative assay (SRB); type: cell-based; details: Homo sapiens; 10 μM single dose; 786-0, Renal cancer; read-out: Cell Growth inhibition Percent
Experimental: as §1, §2, §3, §4

SK-MEL-5 = experiment: NCI-60 single-dose antiproliferative assay (SRB); type: cell-based; details: Homo sapiens; 10 μM single dose; SK-MEL-5, Melanoma; read-out: Cell Growth inhibition Percent
Experimental: as §1, §2, §3, §4

MDA-MB-231/ATCC = experiment: NCI-60 single-dose antiproliferative assay (SRB); type: cell-based; details: Homo sapiens, 10 μM single dose, Breast cancer, read-out: Cell Growth inhibition Percent
Experimental: as §1, §2, §3, §4

SR = experiment: NCI-60 single-dose antiproliferative assay (SRB); type: cell-based; details: Homo sapiens, 10 μM single dose, Leukemia, read-out: Cell Growth inhibition Percent
Experimental: as §1, §2, §3, §4

KM12 = experiment: NCI-60 single-dose antiproliferative assay (SRB); type: cell-based; details: Homo sapiens; 10 μM single dose; KM12, Colon cancer; read-out: Cell Growth inhibition Percent
Experimental: as §1, §2, §3, §4

T-47D = experiment: NCI-60 single-dose antiproliferative assay (SRB); type: cell-based; details: Homo sapiens, T47D, 10 μM single dose, Breast cancer, read-out: Cell Growth inhibition Percent
Experimental: as §1, §2, §3, §4

HL-60(TB) = experiment: NCI-60 single-dose antiproliferative assay (SRB); type: cell-based; details: Homo sapiens, 10 μM single dose, Leukemia, read-out: Cell Growth inhibition Percent
Experimental: as §1, §2, §3, §4

A498 = experiment: NCI-60 single-dose antiproliferative assay (SRB); type: cell-based; details: Homo sapiens; 10 μM single dose; A498, Renal cancer; read-out: Cell Growth inhibition Percent
Experimental: as §1, §2, §3, §4

RPMI-8226 = experiment: NCI-60 single-dose antiproliferative assay (SRB); type: cell-based; details: Homo sapiens; 10 μM single dose; RPMI-8226, Leukemia; read-out: Cell Growth inhibition Percent
Experimental: as §1, §2, §3, §4

K-562 = experiment: NCI-60 single-dose antiproliferative assay (SRB); type: cell-based; details: Homo sapiens, K562; 10 μM single dose; K-562, Leukemia; read-out: Cell Growth inhibition Percent
Experimental: as §1, §2, §3, §4

T1 sequence (O43570 25-354): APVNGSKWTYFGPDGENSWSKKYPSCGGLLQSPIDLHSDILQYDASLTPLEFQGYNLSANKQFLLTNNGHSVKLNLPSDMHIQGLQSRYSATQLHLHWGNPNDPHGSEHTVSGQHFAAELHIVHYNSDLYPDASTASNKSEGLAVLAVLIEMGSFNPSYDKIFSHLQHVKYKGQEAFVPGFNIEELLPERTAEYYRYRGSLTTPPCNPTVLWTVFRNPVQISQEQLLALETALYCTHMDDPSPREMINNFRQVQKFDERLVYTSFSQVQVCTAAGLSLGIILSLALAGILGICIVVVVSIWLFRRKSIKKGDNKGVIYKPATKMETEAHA

## O=S(=O)(Nc1nc2ccc(Cl)cc2s1)c1ccc(F)cc1 [VI]
hCA XII [1]
  Ki: 85 nM
hCA IX [2]
  Ki: 950 nM

## COC(=O)c1ccc2c(c1)NC(=O)/C2=C(\Nc1ccc(N(C)C(=O)CN2CCN(C)CC2)cc1)c1ccccc1 [Nintedanib]
PDGFR α
  IC50: 59 nM
VEGFRII; read-out: IC50 VEGFRII
  IC50: 13 nM
PDGF
  IC50: 59 nM
FGFRII
  IC50: 37 nM
VEGFRI; read-out: IC50 VEGFRI
  IC50: 34 nM
VEGFRIII
  IC50: 13 nM
FGFRI; read-out: IC50 FGFRI
  IC50: 69 nM

## CCN(CC)CCNC(=O)c1c(C)[nH]c(/C=C2\C(=O)Nc3ccc(F)cc32)c1C [Sunitinib]
PDGF
  IC50: 2 nM
VEGF
  IC50: 80 nM
[3]
  IC50: 8110 nM

## CNC(=O)c1cc(Oc2ccc(NC(=O)Nc3ccc(Cl)c(C(F)(F)F)c3)c(F)c2)ccn1 [Regorafenib]
VEGFRII; Fig. 2, reported multi-kinase inhibitors, read-out: VEGFII IC50
  IC50: 42 nM
PDGFR β
  IC50: 22 nM
VEGFRI; Fig. 2, reported multi-kinase inhibitors, read-out: VEGFI IC50
  IC50: 13 nM

## NS(=O)(=O)c1ccc(NC(=O)c2ccc(NC=C3C(=O)Nc4ccccc43)cc2)cc1 [Compound 9a, 4-{[(2-Oxoindolin-3-ylidene)methyl]amino}-N-(4-sulfamoylphenyl)benzamide]
HOP-92
  inhibition at 10 µM: 6.83%
HOP-62
  inhibition at 10 µM: 2.73%
OVCAR-8
  inhibition at 10 µM: 0.63%
NCI-H522
  inhibition at 10 µM: 5.55%
SNB-75
  inhibition at 10 µM: 4.88%
CAKI-1
  inhibition at 10 µM: 8.65%
ACHN
  inhibition at 10 µM: 1.9%
MCF7
  inhibition at 10 µM: 6.01%
hCA IX [4]
  Ki: 68.8 nM
hCA IX [4]; Ki hCA I / Ki hCA IX
  Selectivity ratio I/IX: 4.83
hCA IX [4]; Ki hCA II / Ki hCA IX
  Selectivity ratio II/IX: 4.55
hCA XII [5]
  Ki: 59.4 nM
hCA XII [5]; Ki hCA I / Ki hCA XII
  Selectivity ratio I/XII: 5.59
hCA XII [5]; Ki hCA II / Ki hCA XII
  Selectivity ratio II/XII: 5.27
hCA I
  Ki: 332 nM
UO-31
  inhibition at 10 µM: 18%
hCA II
  Ki: 313 nM

## Cc1ccc(C(=O)Nc2ccc(CN3CCN(C)CC3)c(C(F)(F)F)c2)cc1C#Cc1cnc2cccnn12 [ponatinib]
FGFRI; FGFR-1, inhibitor co-crystallized in PDB ID: 4V01, ref 5 (supplement), read-out: IC50
  IC50: 0.7 nM

## O=C1Nc2ccccc2C1=CNc1ccc(C(=O)C=CNc2ccc(S(=O)(=O)Nc3ncccn3)cc2)cc1 [Compound 13b, 4-{[3-Oxo-3-(4-{[(2-oxoindolin-3-ylidene)methyl]amino}phenyl)prop-1-en-1-yl]amino}-N-(pyrimidin-2-yl)benzenesulfonamide]
NCI-H23
  inhibition at 10 µM: 3.53%
SN12C
  inhibition at 10 µM: 1.75%
HOP-92
  inhibition at 10 µM: 6.38%
786-0
  inhibition at 10 µM: 3.85%
SK-MEL-5
  inhibition at 10 µM: 1.85%
MDA-MB-231/ATCC
  inhibition at 10 µM: 0.12%
SR
  inhibition at 10 µM: 17.9%
KM12
  inhibition at 10 µM: 62.7%
NCI-H522
  inhibition at 10 µM: 1.35%
T-47D
  inhibition at 10 µM: 6.91%
HL-60(TB)
  inhibition at 10 µM: 0.37%
A498
  inhibition at 10 µM: 1.46%
RPMI-8226
  inhibition at 10 µM: 13.6%
CAKI-1
  inhibition at 10 µM: 5.62%
K-562
  inhibition at 10 µM: 2.89%
MCF7
  inhibition at 10 µM: 12.6%
hCA IX [4]
  Ki: > 10000 nM
hCA XII [5]
  Ki: > 10000 nM
hCA I
  Ki: > 10000 nM
other
  melting point: 290 to 294 °C
UO-31
  inhibition at 10 µM: 7.6%
hCA II
  Ki: > 10000 nM

## O=C(O)c1cc(Sc2ccccn2)cc([N+](=O)[O-])c1 [V]
hCA XII [1]
  Ki: 82.1 nM
hCA IX [2]
  Ki: 18 nM
